This passage reports inhibition in vivo and LD50 results from patent US4751302A, “Indazole derivatives” (priority 1982, dated 1988).

For series [1], the system named is Carrageenin edema in rat's paw. The series is described as follows: Carrageenin Edema Test in Rat's Paw (anti-inflammatory activity, Table 1). In kind it is in vivo. The following applies: 100 mg/kg oral, hydrochloride, rat. The method, then:
An anti-inflammatory activity was measured by orally administering 100 mg/kg of a hydrochloride of the indazole derivative of this invention as set forth in Table 1 to an animal in accordance with the standard method of Carrageenin Edema Test in Rat's Paw described in C. A. Winter et al., Proc. Soc. Exp. Biol. Med., 111, 544 (1962).
For orientation: The carrageenan paw model is a standard test of acute inflammation.

The nature of a further series: in vivo. As to conditions: mouse, ip, intraperitoneal, hydrochloride, male ddy mice.

Turning to `Nc1nn(CCCN2CCCCCC2)c2ccc(O)cc12` [(41), 1-(3-Homopiperidinopropyl)-3-amino-5-hydroxyindazole], at 100 mg/kg the inhibition in vivo in series [1] was 36%. The LD50 (commonly the dose expected to kill half of the subjects tested) in “in vivo” worked out at 340 mg/kg.

For `CN1CCN(CCCn2nc(N)c3cc(O)ccc32)CC1` [(42), 1-[3-(4-Methylpiperazino)propyl]-3-amino-5-hydroxyindazole], in series [1], at 100 mg/kg the inhibition in vivo was 24%. Further, the median lethal dose (LD50) in the series “in vivo” was determined as 341 mg/kg.

With `Nc1nn(CCCN2CCCC2)c2ccc(O)cc12` [(43), 1-(3-Pyrrolidinopropyl)-3-amino-5-hydroxyindazole], the inhibition in vivo (as a rule, how much of the control response was suppressed) at 100 mg/kg in series [1] came out at 36%. This compound came in with an LD50 in “in vivo” of 211 mg/kg.

Consider `Nc1nn(CCCN2CCOCC2)c2ccc(O)cc12` [(44), 1-(3-Morpholinopropyl)-3-amino-5-hydroxyindazole], for which 100 mg/kg produced 46% inhibition in vivo in series [1]. In addition, in “in vivo”, the LD50 worked out at 368 mg/kg.

Take `CCN(CC)CCCNc1n[nH]c2cccc(Cl)c12` [(45), 3-(3-Diethylaminopropylamino)-4-chloroindazole]: in series [1], the inhibition in vivo at 100 mg/kg came out at 61%. In “in vivo”, the LD50 is 271 mg/kg.

In series [1], `CCN(CC)CCCNc1n[nH]c2cc(Cl)ccc12` [(47), 3-(3-Diethylaminopropylamino)-6-chloroindazole] came in with an inhibition in vivo at 100 mg/kg of 58%. The compound also showed an LD50 in the series “in vivo” of 278 mg/kg.

For `CCN(CC)CCCNc1n[nH]c2c(Cl)cccc12` [(48), 3-(3-Diethylaminopropylamino)-7-chloroindazole], at 100 mg/kg the inhibition in vivo in series [1] was 57%. The LD50 in “in vivo” is 291 mg/kg.

Regarding `CCN(CC)CCCNc1n[nH]c2ccc(N)cc12` [(49), 3-(3-Diethylaminopropylamino)-5-aminoindazole], the inhibition in vivo at 100 mg/kg in series [1] was found to be 55%. The LD50 in the series “in vivo” is 244 mg/kg.

In series [1], `CCN(CC)CCCNc1n[nH]c2ccc(OC)cc12` [(50), 3-(3-Diethylaminopropylamino)-5-methoxyindazole] registered an inhibition in vivo at 100 mg/kg of 52%. The compound also came in with an LD50 in the series “in vivo” of 200 mg/kg.

In series [1], `CCN(CC)CCCNc1n[nH]c2ccc(C)cc12` [(51), 3-(3-Diethylaminopropylamino)-5-methylindazole] came in with an inhibition in vivo at 100 mg/kg of 60%. Further, the LD50 in the series “in vivo” worked out at 231 mg/kg.

On to `CCCCN(CCCC)CCCNc1n[nH]c2ccc(Cl)cc12` [(52), 3-(3-Di-n-butylaminopropylamino)-5-chloroindazole], for which the inhibition in vivo at 100 mg/kg in series [1] is 61%. For the same compound, the 50% lethal dose (LD50) in the series “in vivo” turned out to be 211 mg/kg.

In the case of `CC(CCNc1n[nH]c2ccc(Cl)cc12)N(C)C` (stereo not drawn) [(53), 3-(3-Dimethylaminobutylamino)-5-chloroindazole], in series [1], at 100 mg/kg the inhibition in vivo was 48%. The compound also yielded a median lethal dose (LD50) in the series “in vivo” of 313 mg/kg.

Regarding `CCN(CC)C(CCNc1n[nH]c2ccc(Cl)cc12)CC(C)C` (stereo not drawn) [(54), 3-(3-Diethylamino-5-methylhexylamino)-5-chloroindazole], the inhibition in vivo at 100 mg/kg in series [1] worked out at 46%. For the same compound, the LD50 in “in vivo” amounted to 251 mg/kg.

In turn, `Clc1ccc2[nH]nc(NCCCN3CCCCC3)c2c1` [(55), 3-(3-Piperidinopropylamino)-5-chloroindazole] showed an inhibition in vivo at 100 mg/kg in series [1] of 47%. Besides, the LD50 in “in vivo” worked out at 133 mg/kg.

On to `Clc1ccc2[nH]nc(NCCCCCCN3CCCCC3)c2c1` [(56), 3-(6-Piperidinohexylamino)-5-chloroindazole], for which the inhibition in vivo at 100 mg/kg in series [1] turned out to be 29%. This compound also had a 50% lethal dose (LD50) in the series “in vivo” of 145 mg/kg.

As to `CC(CCNc1n[nH]c2ccc(Cl)cc12)N1CCCCC1` (stereo not drawn) [(57), 3-(3-Piperidinobutylamino)-5-chloroindazole], in series [1], the inhibition in vivo at 100 mg/kg worked out at 54%. This compound also registered a median lethal dose (LD50) in “in vivo” of 173 mg/kg.

For the compound `CC(C)CC(CCNc1n[nH]c2ccc(Cl)cc12)N1CCCCC1` (stereo not drawn) [(58), 3-(3-Piperidino-5-methylhexylamino)-5-chloroindazole], the inhibition in vivo at 100 mg/kg in series [1] was 40%. The 50% lethal dose (LD50) in “in vivo” stood at 180 mg/kg.

In series [1], `CC1CCCCN1CCCNc1n[nH]c2ccc(Cl)cc12` (stereo not drawn) [(59), 3-[3-(2-Methylpiperidino)propylamino]-5-chloroindazole] registered an inhibition in vivo at 100 mg/kg of 63%. The LD50 in “in vivo” was 210 mg/kg.
